Numbers after ± are expanded uncertainties.
How the values were obtained:
[1] = xn = mol fraction of the nth substance listed; settings: 101.32 kPa, Liquid, Vibrating tube method
[2] = excess molar enthalpy (molar enthalpy of mixing); xn = mol fraction of the nth substance listed; settings: 101 kPa, Liquid, Calvet calorimetry

CCCCCCCCCC [decane] + CCOC(C)=O
Settings	excess molar enthalpy [kcal/mol]	mass density [kg/m3]
[1], 291.15 K, x2 = 0	–	731.22 ± 0.57
[1], 291.15 K, x2 = 0.0174	–	732.37 ± 0.64
[1], 291.15 K, x2 = 0.0789	–	736.87 ± 0.65
[1], 291.15 K, x2 = 0.1457	–	742.14 ± 0.67
[1], 291.15 K, x2 = 0.2494	–	751.47 ± 0.7
[1], 291.15 K, x2 = 0.3508	–	762.27 ± 0.75
[1], 291.15 K, x2 = 0.4382	–	773.02 ± 0.8
[1], 291.15 K, x2 = 0.5149	–	783.83 ± 0.85
[1], 291.15 K, x2 = 0.5781	–	793.79 ± 0.91
[1], 291.15 K, x2 = 0.6446	–	805.51 ± 0.98
[1], 291.15 K, x2 = 0.7051	–	817.52 ± 1.1
[1], 291.15 K, x2 = 0.7648	–	830.7 ± 1.1
[1], 291.15 K, x2 = 0.8069	–	841.06 ± 1.2
[1], 291.15 K, x2 = 0.8553	–	854.05 ± 1.3
[1], 291.15 K, x2 = 0.8914	–	864.68 ± 1.4
[1], 291.15 K, x2 = 0.9318	–	877.69 ± 1.5
[1], 291.15 K, x2 = 0.9794	–	894.7 ± 1.6
[1], 298.15 K, x2 = 0	–	726.2 ± 0.56
[1], 298.15 K, x2 = 0.0319	–	728.3 ± 0.64
[1], 298.15 K, x2 = 0.1165	–	734.6 ± 0.65
[1], 298.15 K, x2 = 0.2048	–	741.9 ± 0.67
[1], 298.15 K, x2 = 0.2835	–	749.3 ± 0.71
[1], 298.15 K, x2 = 0.3475	–	756.1 ± 0.74
[1], 298.15 K, x2 = 0.4252	–	765.35 ± 0.78
[1], 298.15 K, x2 = 0.4873	–	773.59 ± 0.82
[1], 298.15 K, x2 = 0.5417	–	781.58 ± 0.87
[1], 298.15 K, x2 = 0.6031	–	791.53 ± 0.92
[1], 298.15 K, x2 = 0.6469	–	799.34 ± 0.98
[1], 298.15 K, x2 = 0.6957	–	808.8 ± 1
[1], 298.15 K, x2 = 0.7407	–	818.3 ± 1.1
[1], 298.15 K, x2 = 0.78	–	827.2 ± 1.1
[1], 298.15 K, x2 = 0.8179	–	836.5 ± 1.2
[1], 298.15 K, x2 = 0.8516	–	845.4 ± 1.3
[1], 298.15 K, x2 = 0.8865	–	855.4 ± 1.4
[1], 298.15 K, x2 = 0.9207	–	866.1 ± 1.5
[1], 298.15 K, x2 = 0.9604	–	879.5 ± 1.6
[1], 318.15 K, x2 = 0	–	710.9 ± 0.55
[1], 318.15 K, x2 = 0.0117	–	711.52 ± 0.59
[1], 318.15 K, x2 = 0.0758	–	715.68 ± 0.62
[1], 318.15 K, x2 = 0.1539	–	721.34 ± 0.64
[1], 318.15 K, x2 = 0.2456	–	728.94 ± 0.66
[1], 318.15 K, x2 = 0.2848	–	732.56 ± 0.69
[1], 318.15 K, x2 = 0.3468	–	738.71 ± 0.7
[1], 318.15 K, x2 = 0.3714	–	741.31 ± 0.73
[1], 318.15 K, x2 = 0.4391	–	749.04 ± 0.76
[1], 318.15 K, x2 = 0.516	–	758.96 ± 0.78
[1], 318.15 K, x2 = 0.5314	–	761.13 ± 0.84
[1], 318.15 K, x2 = 0.5878	–	769.54 ± 0.87
[1], 318.15 K, x2 = 0.6448	–	778.92 ± 0.92
[1], 318.15 K, x2 = 0.694	–	787.77 ± 0.96
[1], 318.15 K, x2 = 0.7127	–	791.38 ± 1
[1], 318.15 K, x2 = 0.7829	–	806.2 ± 1.1
[1], 318.15 K, x2 = 0.8204	–	815 ± 1.2
[1], 318.15 K, x2 = 0.8538	–	823.5 ± 1.2
[1], 318.15 K, x2 = 0.8886	–	833 ± 1.3
[1], 318.15 K, x2 = 0.9198	–	842.3 ± 1.4
[1], 318.15 K, x2 = 0.9553	–	853.8 ± 1.5
[1], 328.15 K, x2 = 0	–	703.34 ± 0.55
[1], 328.15 K, x2 = 0.0347	–	705.37 ± 0.61
[1], 328.15 K, x2 = 0.1351	–	711.99 ± 0.62
[1], 328.15 K, x2 = 0.234	–	719.58 ± 0.65
[1], 328.15 K, x2 = 0.3322	–	728.47 ± 0.69
[1], 328.15 K, x2 = 0.4166	–	737.37 ± 0.73
[1], 328.15 K, x2 = 0.4853	–	745.64 ± 0.77
[1], 328.15 K, x2 = 0.5551	–	755.09 ± 0.82
[1], 328.15 K, x2 = 0.6186	–	764.72 ± 0.87
[1], 328.15 K, x2 = 0.6774	–	774.65 ± 0.93
[1], 328.15 K, x2 = 0.7271	–	783.92 ± 0.99
[1], 328.15 K, x2 = 0.7735	–	793.4 ± 1.1
[1], 328.15 K, x2 = 0.8619	–	814.12 ± 1.2
[1], 328.15 K, x2 = 0.9041	–	825.66 ± 1.3
[1], 328.15 K, x2 = 0.9511	–	840.13 ± 1.5
[2], 291.15 K, x2 = 0.0986	0.146 ± 0.00311	–
[2], 291.15 K, x2 = 0.1909	0.246 ± 0.00526	–
[2], 291.15 K, x2 = 0.2646	0.318 ± 0.00669	–
[2], 291.15 K, x2 = 0.3377	0.372 ± 0.00789	–
[2], 291.15 K, x2 = 0.4032	0.404 ± 0.0086	–
[2], 291.15 K, x2 = 0.4608	0.422 ± 0.00908	–
[2], 291.15 K, x2 = 0.5067	0.429 ± 0.00908	–
[2], 291.15 K, x2 = 0.5523	0.433 ± 0.00932	–
[2], 291.15 K, x2 = 0.5924	0.428 ± 0.00908	–
[2], 291.15 K, x2 = 0.6147	0.421 ± 0.00908	–
[2], 291.15 K, x2 = 0.6541	0.409 ± 0.00884	–
[2], 291.15 K, x2 = 0.7009	0.389 ± 0.00837	–
[2], 291.15 K, x2 = 0.7512	0.357 ± 0.00765	–
[2], 291.15 K, x2 = 0.7956	0.317 ± 0.00669	–
[2], 291.15 K, x2 = 0.8448	0.268 ± 0.00574	–
[2], 291.15 K, x2 = 0.8927	0.208 ± 0.00454	–
[2], 291.15 K, x2 = 0.9375	0.14 ± 0.00311	–
[2], 291.15 K, x2 = 0.9684	0.0715 ± 0.00191	–
[2], 298.15 K, x2 = 0.0884	0.119 ± 0.00263	–
[2], 298.15 K, x2 = 0.177	0.216 ± 0.00454	–
[2], 298.15 K, x2 = 0.2587	0.289 ± 0.00621	–
[2], 298.15 K, x2 = 0.3362	0.345 ± 0.00741	–
[2], 298.15 K, x2 = 0.4005	0.377 ± 0.00813	–
[2], 298.15 K, x2 = 0.4566	0.398 ± 0.0086	–
[2], 298.15 K, x2 = 0.5101	0.408 ± 0.00884	–
[2], 298.15 K, x2 = 0.5578	0.408 ± 0.0086	–
[2], 298.15 K, x2 = 0.5984	0.402 ± 0.0086	–
[2], 298.15 K, x2 = 0.6297	0.395 ± 0.00837	–
[2], 298.15 K, x2 = 0.6727	0.381 ± 0.00813	–
[2], 298.15 K, x2 = 0.7191	0.357 ± 0.00765	–
[2], 298.15 K, x2 = 0.7636	0.329 ± 0.00693	–
[2], 298.15 K, x2 = 0.8098	0.289 ± 0.00621	–
[2], 298.15 K, x2 = 0.8591	0.24 ± 0.00526	–
[2], 298.15 K, x2 = 0.9024	0.185 ± 0.00406	–
[2], 298.15 K, x2 = 0.9385	0.124 ± 0.00287	–
[2], 298.15 K, x2 = 0.9744	0.0595 ± 0.00143	–
[2], 318.15 K, x2 = 0.0892	0.136 ± 0.00287	–
[2], 318.15 K, x2 = 0.172	0.226 ± 0.00478	–
[2], 318.15 K, x2 = 0.2474	0.3 ± 0.00645	–
[2], 318.15 K, x2 = 0.3208	0.354 ± 0.00765	–
[2], 318.15 K, x2 = 0.3848	0.388 ± 0.00837	–
[2], 318.15 K, x2 = 0.4412	0.409 ± 0.00884	–
[2], 318.15 K, x2 = 0.4941	0.42 ± 0.00884	–
[2], 318.15 K, x2 = 0.5409	0.421 ± 0.00908	–
[2], 318.15 K, x2 = 0.5801	0.417 ± 0.00884	–
[2], 318.15 K, x2 = 0.5985	0.412 ± 0.00884	–
[2], 318.15 K, x2 = 0.6567	0.391 ± 0.00837	–
[2], 318.15 K, x2 = 0.6942	0.374 ± 0.00789	–
[2], 318.15 K, x2 = 0.7429	0.344 ± 0.00741	–
[2], 318.15 K, x2 = 0.7959	0.303 ± 0.00645	–
[2], 318.15 K, x2 = 0.8499	0.249 ± 0.00526	–
[2], 318.15 K, x2 = 0.9018	0.179 ± 0.00382	–
[2], 318.15 K, x2 = 0.9554	0.0973 ± 0.00215	–

Reference: the NIST ThermoML archive (doi:10.1021/je100832h)
